This passage reports IC50 results from US7115599B2, “Sulfonamide-substituted pyrazolopyridine compounds” (Bayer Aktiengesellschaft, priority 2000, dated 2006).

pIC50: −log10 of the molar value.

This assay has as its system rabbit aorta rings. The assay can be described thus: Vasorelaxant effect in vitro (phenylephrine-contracted rabbit aortic rings). Conditions: Oryctolagus cuniculus; concentration reducing height of phenylephrine-induced contraction of rabbit aorta rings by 50%; 0.1% DMSO, 37° C. The method, then: Rabbits are stunned by a blow to the back of the neck and are exsanguinated. The aorta is removed, freed of adherent tissue, divided into rings 1.5 mm wide and put singly under tension in 5 ml organ baths containing carbogen-gassed Krebs-Henseleit solution at 37° C. with the following composition (mM): NaCl: 119; KCl: 4.8; CaCl2×2H2O: 1; MgSO4×7H2O: 1.4; KH2PO4: 1.2; NaHCO3: 25; glucose: 10. The force of contraction is detected with Statham UC2 cells, amplified and digitized via A/D converters (DAS-1802 HC, Keithley Instruments Munich) and recorded in parallel on chart recorders. A contraction is generated by adding phenylephrine to the bath cumulatively in increasing concentration. After several control cycles, the substance to be investigated is investigated in each further run in increasing dosage in each case, and the height of the contraction is compared with the height of the contraction reached in the last preceding run. The concentration necessary to reduce the height of the control value by 50% (IC50) is calculated from this. The standard application volume is 5 μl, and the DMSO content in the bath solution corresponds to 0.1%.

As usually defined, the pIC50 is −log10 of the IC50, conventionally taken in molar units.

`Nc1nc(-c2nn(Cc3ccccc3F)c3ncccc23)nc(Cl)c1N1CCCS1(=O)=O` [Example 1, 6-Chloro-5-(1,1-dioxido-2-isothiazolidinyl)-2-[1-(2-fluorobenzyl)-1H-pyrazolo[3,4-b]pyridin-3-yl]-4-pyrimidinediamine] showed a pIC50 of 6.54.

With `Nc1nc(-c2nn(Cc3ccccc3F)c3ncccc23)nc(N)c1N1CCCS1(=O)=O` [Example 3, 5-(1,1-Dioxido-2-isothiazolidinyl)-2-[1-(2-fluorobenzyl)-1H-pyrazolo[3,4-b]pyridin-3-yl]-4,6-pyrimidineamine], the negative-log IC50 (pIC50) was 6.46.
